ChEMBL document CHEMBL5608141, “Identification of compartment-specific drug sensitivities in CRC organoid-stroma co-cultures” (2024)
Non-standard residues stand in square brackets, D forms with d. Residues, ends and D or L forms follow the SMILES beside them. Arg(Me) = CNC(=N)NCCC[C@H](N)C(=O)O; d3Pal = N[C@H](Cc1cccnc1)C(=O)O; d4Pal = N[C@H](Cc1ccncc1)C(=O)O; azaGly = NNC(=O)O

Columns and labels:
Type in all cases: functional, Homo sapiens
Design in all cases: dose or concentration left out as unconfirmed
Colon cancer organoid [1] = test: Identification of compartment-specific drug sensitivities in O06 CRC organoid-stroma F06 CAF co-cultures. Organoid is transduced with Lucferase2-P2A-EGFP lentivirus, fibroblast with Renilla-dsRed lentivirus. Dual-Glo Luciferase assay is used to report viability data.
Colon cancer organoid [2] = test: Identification of compartment-specific drug sensitivities in O14 CRC organoid-stroma F14 CAF co-cultures. Organoid is transduced with Lucferase2-P2A-EGFP lentivirus, fibroblast with Renilla-dsRed lentivirus. Dual-Glo Luciferase assay is used to report viability data.
Colon cancer organoid [3] = test: Identification of compartment-specific drug sensitivities in O20 CRC organoid-stroma F20 CAF co-cultures. Organoid is transduced with Lucferase2-P2A-EGFP lentivirus, fibroblast with Renilla-dsRed lentivirus. Dual-Glo Luciferase assay is used to report viability data.
[4] = Transduced with Lucferase2-P2A-EGFP lentivirus
[5] = Transduced with Renilla-dsRed lentivirus

SMILES | Cell Viability (Colon cancer organoid [1]; [4]) | Cell Viability (Colon cancer organoid [1]; [5]) | Cell Viability (Colon cancer organoid [2]; [4]) | Cell Viability (Colon cancer organoid [2]; [5]) | Cell Viability (Colon cancer organoid [3]; [4]) | Cell Viability (Colon cancer organoid [3]; [5])
CCCOc1ccn2c(C(C)=O)cc(-c3ccccc3S(C)(=O)=O)c2c1 | 121.922% | 129.269% | 92.2028% | 99.133% | 150.252% | 117.742%
CNC(=N)NCCC[C@H](NC(=O)[C@H](CC(C)C)NC(=O)NNC(=O)[C@H](Cc1ccccc1)NC(=O)[C@H](CO)NC(=O)[C@H](CC(N)=O)NC(=O)[C@@H](Cc1ccncc1)NC(=O)[C@H](N)Cc1ccc(O)cc1)C(=O)N[C@@H](Cc1ccccc1)C(N)=O [KISS1-305] (H-[dY][d4Pal]NSF[azaGly]L[Arg(Me)]F-NH2) | 113.14% | 104.585% | 102.723% | 96.9932% | 118.72% | 125.679%
CN(C)[C@@H]1CCN(c2cc(-c3ccccc3)nc3ccnn23)C1 [(R)-ZINC-3573] | 122.992% | 121.371% | 83.9602% | 82.5117% | 97.984% | 99.7993%
O=C(NCc1ncc(C(F)(F)F)cc1Cl)c1ccc2c(c1)C1(CCS(=O)(=O)CC1)[C@@H](C1CC1)N2S(=O)(=O)c1ccc(F)cc1 [BAY-786] | 81.2723% | 52.1511% | 85.8201% | 92.0831% | 102.274% | 106.984%
O=C(NCCCN1CCOC1=O)c1cnc(NCc2cc(Br)ccc2Br)nc1NC1CCCC1 | 72.4903% | 99.9468% | 120.927% | 72.8786% | 103.947% | 94.0994%
O=C1CCc2cc(Nc3cc(OC4CCOCC4)c([N+](=O)[O-])cc3Cl)ccc2N1 | 74.579% | 100.938% | 98.9348% | 106.803% | 150.133% | 114.972%
COc1cccc(CNC(=O)c2nc3scc(CN(C)Cc4ccccc4)c3c(=O)[nH]2)c1 [T-26f] | 112.096% | 76.7347% | 126.414% | 118.487% | 156.545% | 109.586%
COc1c(C)cc(NC(=O)c2nn(Cc3ccc(F)cc3)c3c2CN(C(=O)c2ccc[nH]2)C[C@]3(C)C(N)=O)cc1C | 66.5012% | 112.674% | 104.772% | 92.7757% | 107.405% | 95.1299%
Cc1cc2c(-c3ccco3)cnc(N[C@@H]3CCN(C)C[C@H]3C(=O)NC3CCCCC3)c2[nH]c1=O [GSK789] | 76.5976% | 134.369% | 52.4382% | 127.289% | 34.1492% | 125.83%
COc1nc2ccc([C@@](O)(c3ccccc3)C3CCN(C(C)=O)CC3)cc2c(Cl)c1Cc1ccc(-n2cccn2)cc1 [JNJ-54119936] | 97.0001% | 121.742% | 99.4009% | 84.202% | 65.101% | 118.395%
COc1ccc(Oc2cc(NCCC(F)(F)F)c3ncc(-c4ccc(C(=O)NC5CC5)c(C)c4)n3n2)c(F)c1F [BAY-1217389] | 5.893% | 100.303% | 9.59% | 58.9964% | 10.0806% | 184.891%
CN(C)c1ncnc(-c2ccc3nc(Nc4cc(CN5CCN(C(=O)CC(F)(F)F)CC5)ccn4)[nH]c3c2)c1Cl [BAY-440] | 110.52% | 104.43% | 161.186% | 109.54% | 123.006% | 109.622%
C[C@H](c1ccc(F)cc1)N(Cc1ccc(Cl)c(C(=O)O)c1)C(=O)c1cnc2ccccc2c1 [PF-05257137] | 94.0157% | 76.638% | 108.547% | 109.197% | 147.232% | 103.742%
CNC(=N)NCCC[C@H](NC(=O)[C@H](CC(C)C)NC(=O)NNC(=O)[C@H](Cc1ccccc1)NC(=O)[C@H](CO)NC(=O)[C@H](CC(N)=O)NC(=O)[C@@H](Cc1cccnc1)NC(=O)[C@H](N)Cc1ccc(O)cc1)C(=O)NCC(N)=O [KISS1-543] (H-[dY][d3Pal]NSF[azaGly]L[Arg(Me)]G-NH2) | 93.1752% | 90.9674% | 105.115% | 104.622% | 101.104% | 120.489%
Cn1cc(CCn2cnc(-c3cnn(C)c3)c2-c2ccc(C#N)cc2)cn1 | 101.212% | 117.261% | 93.9691% | 90.5921% | 163.337% | 107.326%
CCOc1cc(N2CCC(O)CC2)ccc1Nc1ncc2c(n1)N(C)c1ccccc1C(=O)N2C | 85.6087% | 128.987% | 113.616% | 107.398% | 81.3429% | 117.331%
CN(C)C(=O)Cn1cc(-c2nc(C3(c4ccc(-c5cnc(N)nc5)cc4)CC3)no2)cn1 [BI 0153] | 137.539% | 73.6279% | 127.983% | 104.715% | 119.435% | 91.9766%
CC(C)(C)OC(=O)N1CCCC1CNC1CCC(c2cc(F)ccc2F)(S(=O)(=O)c2ccc(Cl)cc2)CC1 (stereo not drawn) [GSI-NC] | 96.8575% | 78.4593% | 112.017% | 95.5535% | 93.8933% | 100.789%
C[C@H](c1ccnc(Nc2nc3ccc(-c4cc(N(C)C)ncn4)cc3[nH]2)c1)N1CCN(C(=O)CC(F)(F)F)CC1 [BAY-985] | 137.072% | 142.411% | 130.529% | 136.274% | 129.711% | 125.86%
O=C(NNS(=O)(=O)c1ccccc1F)c1cc(F)cc(-c2ccccn2)c1 [WM-1119] | 97.0333% | 108.11% | 29.5498% | 87.8305% | 69.0433% | 152.012%
CN1CCN(c2ccc(-c3cccc(CN4CCOCC4)c3)cc2NC(=O)c2c[nH]c(=O)cc2C(F)(F)F)CC1 | 91.1397% | 122.014% | 95.9628% | 85.2187% | 82.8822% | 116.555%
Clc1cc2c(NC3CCCC3)nnc(-c3ccncc3)c2cc1Cl | 131.765% | 133.642% | 104.198% | 96.8835% | 149.848% | 128.6%
COc1ccccc1C(=O)Nc1cc2c(cc1N1CCCC1)n(C)c(=O)n2C |  |  |  |  | 114.161% | 143.545%
CS(=O)(=O)N1CCN(Cc2cc3nc(-c4cccc5[nH]ncc45)nc(N4CCOCC4)c3s2)CC1 [PICTILISIB] | 43.124% | 60.0718% | 42.7401% | 54.6957% |  | 
